Results published in patent publication US20230321067A1, “DOSING REGIMEN COMPRISING 3-(1-OXOISOINDOLIN-2-YL)PIPERIDINE-2,6-DIONE DERIVATIVES” (Novartis AG, priority 2020, published 2023).
Read-outs that look alike come from different tables or passages of the source.

Legend:
IKZF2 [1] = assay: Degradation of IKZF2 in primary PBMCs, cynomolgus monkey (FIG. 3); assay type: cell-based
Source text: (§1) FIG. 3. is a bar graph showing the degradation of IKZF2 in primary PBMCs obtained from rabbit, dog, pig, cynomolgus monkey and human, and in primary splenocytes of mouse and rat and treated with Compound I-57.

IKZF2 [2] = biological target: T1, IKZF2 (Oryctolagus cuniculus, UniProt A0A5F9CPW0); assay: Degradation of IKZF2 in primary PBMCs, rabbit (FIG. 3); assay type: cell-based
T1 construct: endogenous in cells; host or cells: primary rabbit PBMCs
Source text: as §1

[3] = test system: isolated primary human T cells; assay: In vitro T cell dysfunction/exhaustion assay (sequential TCR stimulation); assay type: cell-based
Source text: Although the specific transcriptional targets of IKZF2 remain to be defined, IKZF2 binds to and represses transcription from the IL-2 promoter region (Baine 2013). […] Finally, an in vitro assay recapitulating hallmarks of T cell dysfunction/exhaustion, by sequential TCR stimulation of isolated primary human T cells, was used to test the hypothesis that […] would rescue the exhausted phenotype and enhance Teff cell activity. […] In addition to IKZF1, other known cereblon substrates including translation termination factor G1 to S phase transition 1 (GSPT1) are not degraded by I-57 (FIG. 1).

[4] = Single oral dose PK in cynomolgus monkey; assay type: in vivo; conditions: for Cmax / AUC(0-t): plasma; for Cmax / AUC(0-t) / AUC24 h/Dose / Cmax/Dose: unbound, n = 3, mean ± SD; for AUC(0-t): read-out: AUC24 h
Experimental: The PK/PD relationship of I-57 was examined in cynomolgus monkeys after a single oral dose of 0.01, 0.1 or 1 mg/kg. I-57 plasma concentration and IKZF2 expression (as determined by flow cytometry) in FOXP3+ T cells from PBMCs were determined (FIG. 4 and FIG. 5).

plasma protein = assay: Plasma protein binding in vitro, dog; assay type: in vitro ADME
Source text: The binding to plasma protein of I-57 in vitro was moderate in all species, with an observed difference between rodents (73% in mouse, 76% in rat) and non-rodents (52% in dog and monkey, 54% in human). Blood-to-plasma ratios were in the range of 0.7-1.8 (human 1.1-1.3). […] Based on results with non-radiolabeled I-57 in the dog, a significant amount of unchanged I-57 was renally eliminated (˜20% of dose).

CYP2D6 [5] = biological target: T2, CYP2D6 (Homo sapiens, UniProt P10635); assay: CYP inhibition: CYP2D6; assay type: in vitro ADME
CYP1A2 = CYP1A2 (Homo sapiens, UniProt P05177); assay: CYP inhibition: CYP1A2; assay type: in vitro ADME; conditions: I-57 concentrations of up to 100 μM
CYP2B6 = CYP2B6 (Homo sapiens, UniProt P20813); assay: Time-dependent CYP inhibition: CYP2B6; assay type: in vitro ADME; conditions: I-57 concentrations of up to 100 μM
CYP2C9 = CYP2C9 (Homo sapiens, UniProt P11712); assay: Time-dependent CYP inhibition: CYP2C9; assay type: in vitro ADME; conditions: I-57 concentrations of up to 100 μM
CYP2D6 [6] = biological target: T2, CYP2D6; assay: Time-dependent CYP inhibition: CYP2D6; assay type: in vitro ADME; conditions: I-57 concentrations of up to 100 μM
IKZF2 [7] = biological target: IKZF2 (Homo sapiens, UniProt Q96SW2+Q9UKS7); assay: IKZF2 in tumor-infiltrating lymphocytes by IHC, hPBMC AdT model; assay type: in vivo, NSG mice with human PBMCs; set-up: endogenous in cells; host or cells: human lymphocytes (CD4+FOXP3+ Tregs; total tumor-infiltrating lymphocytes) from healthy-donor PBMC transferred into NSG mice; conditions: 24 h post the 14th dose
Experimental: IKZF2 protein levels in total tumor-infiltrating lymphocytes were also assessed by immunohistochemistry (IHC) at 24 h post the 14th dose of 1, 3 or 30 mg/kg I-57. […] Overall, IKZF2 degradation assessed by IHC was generally consistent with our findings in Tregs by flow cytometry, though dose dependency was less apparent. Together, the data support the finding of profound I-57-mediated IKZF2 degradation in tumor-infiltrating lymphocytes (FIG. 8A and FIG. 8B).

T2 sequence (P10635 whole entry): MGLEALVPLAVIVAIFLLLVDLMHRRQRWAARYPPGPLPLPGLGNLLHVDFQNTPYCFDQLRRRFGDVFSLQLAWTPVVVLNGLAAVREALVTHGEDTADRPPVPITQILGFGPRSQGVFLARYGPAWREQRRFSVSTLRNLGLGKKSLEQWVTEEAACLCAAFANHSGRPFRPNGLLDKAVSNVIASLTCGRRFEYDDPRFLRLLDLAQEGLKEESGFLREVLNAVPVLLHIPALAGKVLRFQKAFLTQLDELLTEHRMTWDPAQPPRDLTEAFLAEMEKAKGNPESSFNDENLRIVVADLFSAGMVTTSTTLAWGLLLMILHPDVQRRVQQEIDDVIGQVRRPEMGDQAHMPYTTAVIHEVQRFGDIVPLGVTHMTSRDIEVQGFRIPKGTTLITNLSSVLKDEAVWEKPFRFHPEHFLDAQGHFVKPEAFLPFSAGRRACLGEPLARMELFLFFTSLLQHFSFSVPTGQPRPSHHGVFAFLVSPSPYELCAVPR
Chain of IKZF2 (Homo sapiens, UniProt Q96SW2+Q9UKS7) (Q9UKS7 whole entry): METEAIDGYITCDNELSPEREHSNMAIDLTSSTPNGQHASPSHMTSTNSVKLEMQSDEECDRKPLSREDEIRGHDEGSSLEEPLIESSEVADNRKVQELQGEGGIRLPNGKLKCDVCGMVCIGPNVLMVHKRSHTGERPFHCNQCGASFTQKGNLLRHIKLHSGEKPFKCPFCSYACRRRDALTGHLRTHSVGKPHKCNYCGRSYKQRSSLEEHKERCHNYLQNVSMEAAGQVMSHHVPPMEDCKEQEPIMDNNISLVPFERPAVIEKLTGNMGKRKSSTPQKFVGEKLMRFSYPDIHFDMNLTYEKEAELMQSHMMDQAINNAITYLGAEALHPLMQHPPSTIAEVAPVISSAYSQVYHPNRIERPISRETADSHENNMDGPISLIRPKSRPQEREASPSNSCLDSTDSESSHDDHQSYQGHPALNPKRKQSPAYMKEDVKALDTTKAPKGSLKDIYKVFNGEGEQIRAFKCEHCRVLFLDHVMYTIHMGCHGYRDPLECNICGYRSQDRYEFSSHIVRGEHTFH
Chain of IKZF2 (Homo sapiens, UniProt Q96SW2+Q9UKS7) (Q96SW2 whole entry): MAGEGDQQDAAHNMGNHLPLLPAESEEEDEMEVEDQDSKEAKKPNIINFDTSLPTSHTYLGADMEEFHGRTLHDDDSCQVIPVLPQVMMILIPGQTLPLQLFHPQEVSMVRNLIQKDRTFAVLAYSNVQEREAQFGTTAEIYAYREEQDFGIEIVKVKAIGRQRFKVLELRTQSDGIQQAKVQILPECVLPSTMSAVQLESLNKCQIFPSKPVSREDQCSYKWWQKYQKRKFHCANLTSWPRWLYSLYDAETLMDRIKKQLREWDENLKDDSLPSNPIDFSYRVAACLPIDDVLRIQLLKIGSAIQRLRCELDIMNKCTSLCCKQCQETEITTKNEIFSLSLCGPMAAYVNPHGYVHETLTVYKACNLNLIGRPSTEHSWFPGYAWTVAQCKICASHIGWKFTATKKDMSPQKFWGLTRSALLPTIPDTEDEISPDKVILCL
Chain of IKZF2 (Homo sapiens, UniProt Q96SW2+Q9UKS7) (Q16531 whole entry partner): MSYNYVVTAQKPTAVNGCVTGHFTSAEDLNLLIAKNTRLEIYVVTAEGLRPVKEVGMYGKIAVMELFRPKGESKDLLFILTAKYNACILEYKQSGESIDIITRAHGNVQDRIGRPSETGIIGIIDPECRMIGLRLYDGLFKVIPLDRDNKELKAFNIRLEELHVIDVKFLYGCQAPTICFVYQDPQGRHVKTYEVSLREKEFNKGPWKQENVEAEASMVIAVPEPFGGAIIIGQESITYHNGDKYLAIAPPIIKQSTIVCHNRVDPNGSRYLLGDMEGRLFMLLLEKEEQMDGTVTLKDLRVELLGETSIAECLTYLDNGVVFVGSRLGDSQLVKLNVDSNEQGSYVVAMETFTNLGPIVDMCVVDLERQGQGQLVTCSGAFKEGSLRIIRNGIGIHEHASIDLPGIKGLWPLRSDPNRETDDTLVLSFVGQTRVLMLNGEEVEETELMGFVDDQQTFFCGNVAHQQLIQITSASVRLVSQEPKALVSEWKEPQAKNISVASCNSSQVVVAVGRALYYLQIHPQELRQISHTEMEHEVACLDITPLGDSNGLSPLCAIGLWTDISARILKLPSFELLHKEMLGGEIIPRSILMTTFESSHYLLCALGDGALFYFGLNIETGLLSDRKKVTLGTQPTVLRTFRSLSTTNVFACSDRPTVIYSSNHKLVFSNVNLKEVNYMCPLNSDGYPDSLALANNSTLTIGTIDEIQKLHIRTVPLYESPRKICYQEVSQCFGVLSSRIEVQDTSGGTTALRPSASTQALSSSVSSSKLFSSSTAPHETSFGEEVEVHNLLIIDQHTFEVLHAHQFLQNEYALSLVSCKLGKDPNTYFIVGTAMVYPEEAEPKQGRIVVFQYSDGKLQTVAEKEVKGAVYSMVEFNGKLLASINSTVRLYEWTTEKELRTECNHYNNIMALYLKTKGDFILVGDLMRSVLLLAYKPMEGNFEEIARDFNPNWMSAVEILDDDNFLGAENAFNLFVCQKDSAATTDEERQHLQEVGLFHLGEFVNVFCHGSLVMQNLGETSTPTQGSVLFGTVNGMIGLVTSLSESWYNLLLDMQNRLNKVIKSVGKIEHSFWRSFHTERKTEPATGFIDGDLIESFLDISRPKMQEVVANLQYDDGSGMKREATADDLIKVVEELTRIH
T1 sequence (A0A5F9CPW0 1-526): as the sequence (Q9UKS7 whole entry) above, with E68D, M234V, I266M, A373S, H423N, A449V counted along it
Chain of CYP1A2 (P05177 whole entry): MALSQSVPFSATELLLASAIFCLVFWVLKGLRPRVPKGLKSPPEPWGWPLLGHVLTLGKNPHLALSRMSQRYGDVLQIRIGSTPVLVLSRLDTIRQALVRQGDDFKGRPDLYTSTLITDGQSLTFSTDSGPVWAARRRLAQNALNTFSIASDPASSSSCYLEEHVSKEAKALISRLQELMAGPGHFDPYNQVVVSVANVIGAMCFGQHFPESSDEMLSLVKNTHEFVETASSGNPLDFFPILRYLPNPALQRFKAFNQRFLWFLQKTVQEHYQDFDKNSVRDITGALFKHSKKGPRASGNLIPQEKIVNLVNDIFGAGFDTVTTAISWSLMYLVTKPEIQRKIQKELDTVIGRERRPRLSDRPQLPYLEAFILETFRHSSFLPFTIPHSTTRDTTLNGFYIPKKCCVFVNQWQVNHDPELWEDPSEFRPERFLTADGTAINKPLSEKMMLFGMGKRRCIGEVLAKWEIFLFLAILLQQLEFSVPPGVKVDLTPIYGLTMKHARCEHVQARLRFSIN
Chain of CYP2C9 (P11712 whole entry): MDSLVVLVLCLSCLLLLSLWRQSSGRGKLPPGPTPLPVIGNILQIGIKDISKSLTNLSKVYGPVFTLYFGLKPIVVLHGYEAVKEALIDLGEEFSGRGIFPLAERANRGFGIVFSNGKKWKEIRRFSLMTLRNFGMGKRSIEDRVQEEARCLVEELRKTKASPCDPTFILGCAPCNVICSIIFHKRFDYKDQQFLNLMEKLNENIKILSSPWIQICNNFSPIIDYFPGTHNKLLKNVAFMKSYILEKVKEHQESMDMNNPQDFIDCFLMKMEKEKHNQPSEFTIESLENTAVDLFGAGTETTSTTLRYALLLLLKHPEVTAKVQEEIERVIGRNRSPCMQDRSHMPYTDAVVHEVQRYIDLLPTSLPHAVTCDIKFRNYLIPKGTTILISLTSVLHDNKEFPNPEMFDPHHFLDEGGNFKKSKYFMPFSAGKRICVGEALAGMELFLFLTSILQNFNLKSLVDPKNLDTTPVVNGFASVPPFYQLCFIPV
Chain of CYP2B6 (P20813 whole entry): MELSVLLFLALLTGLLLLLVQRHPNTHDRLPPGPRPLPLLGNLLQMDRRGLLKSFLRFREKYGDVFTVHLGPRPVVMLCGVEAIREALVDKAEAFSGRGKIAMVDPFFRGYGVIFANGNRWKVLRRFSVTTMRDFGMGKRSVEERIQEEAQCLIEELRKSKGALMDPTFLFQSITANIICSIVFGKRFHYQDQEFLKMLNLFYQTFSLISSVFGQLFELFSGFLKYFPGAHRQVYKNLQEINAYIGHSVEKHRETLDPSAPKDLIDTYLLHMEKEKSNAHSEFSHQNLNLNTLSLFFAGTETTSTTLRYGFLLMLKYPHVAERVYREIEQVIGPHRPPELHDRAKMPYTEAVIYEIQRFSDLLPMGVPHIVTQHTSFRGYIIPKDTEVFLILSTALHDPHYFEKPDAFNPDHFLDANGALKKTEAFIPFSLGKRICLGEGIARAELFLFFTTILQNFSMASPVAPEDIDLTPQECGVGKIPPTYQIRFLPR

SMILES: O=C1CCC(N2Cc3cc(C4CCN(Cc5ccccc5)CC4)ccc3C2=O)C(=O)N1 (stereo not shown) [Compound I-57, 3-(5-(1-benzylpiperidin-4-yl)-1-oxoisoindolin-2-yl)piperidine-2,6-dione]
- degradation of IKZF2 (IKZF2 [1]): degradation was observed
- degradation of IKZF2 (IKZF2 [2]): degradation was observed
- IKZF2 degradation [3]: degraded IKZF2 in a dose-dependent manner
- interferon gamma production by IKZF2 positive cells [3]: concomitant increase
- Cmax ([4]; single oral dose 0.01 mg/kg): 2.11 ± 0.69 ng/mL
- AUC(0-t) ([4]; single oral dose 0.01 mg/kg): 14.1 ± 4.72 ng·h/mL
- Cmax ([4]; single oral dose 0.1 mg/kg): 13.4 ± 2.77 ng/mL
- AUC(0-t) ([4]; single oral dose 0.1 mg/kg): 102 ± 13.2 ng·h/mL
- Cmax ([4]; single oral dose 1 mg/kg): 102 ± 45.3 ng/mL
- AUC(0-t) ([4]; single oral dose 1 mg/kg): 610 ± 236 ng·h/mL
- dose proportionality of exposure ([4]; single oral dose 0.01, 0.1 or 1 mg/kg): slightly less than dose proportional
- AUC24 h/Dose ([4]; single oral dose 0.01 mg/kg): 1410 ± 472 (ng · h/mL)/(mg/kg)
- Cmax/Dose ([4]; single oral dose 0.01 mg/kg): 211 ± 69.1 (ng/mL)/(mg/kg)
- AUC24 h/Dose ([4]; single oral dose 0.1 mg/kg): 1020 ± 136 (ng · h/mL)/(mg/kg)
- Cmax/Dose ([4]; single oral dose 0.1 mg/kg): 134 ± 27.7 (ng/mL)/(mg/kg)
- AUC24 h/Dose ([4]; single oral dose 1 mg/kg): 610 ± 236 (ng · h/mL)/(mg/kg)
- Cmax/Dose ([4]; single oral dose 1 mg/kg): 102 ± 45.3 (ng/mL)/(mg/kg)
- binding to plasma protein (plasma protein): 52%
- IC50 (CYP2D6 [5]): ~65 µM
- inhibition of CYP1A2 (CYP1A2): very little and no inhibition
- time-dependent inhibition of CYP2B6 (CYP2B6): no apparent time-dependent inhibition
- time-dependent inhibition of CYP2C9 (CYP2C9): no apparent time-dependent inhibition
- time-dependent inhibition of CYP2D6 (CYP2D6 [6]): no apparent time-dependent inhibition
- IKZF2 degradation in total tumor-infiltrating lymphocytes (IKZF2 [7]; 30 mg/kg): approximately 85%
- IKZF2 levels in total tumor-infiltrating lymphocytes (IKZF2 [7]; all dose levels (1, 3 or 30 mg/kg)): Robust reduction in IKZF2 levels
